In experiment [1] the target is T1, human CD73 recombinant protein (Homo sapiens, UniProt P21589).
T1 construct: made in house
T1 sequence (P21589 27-549): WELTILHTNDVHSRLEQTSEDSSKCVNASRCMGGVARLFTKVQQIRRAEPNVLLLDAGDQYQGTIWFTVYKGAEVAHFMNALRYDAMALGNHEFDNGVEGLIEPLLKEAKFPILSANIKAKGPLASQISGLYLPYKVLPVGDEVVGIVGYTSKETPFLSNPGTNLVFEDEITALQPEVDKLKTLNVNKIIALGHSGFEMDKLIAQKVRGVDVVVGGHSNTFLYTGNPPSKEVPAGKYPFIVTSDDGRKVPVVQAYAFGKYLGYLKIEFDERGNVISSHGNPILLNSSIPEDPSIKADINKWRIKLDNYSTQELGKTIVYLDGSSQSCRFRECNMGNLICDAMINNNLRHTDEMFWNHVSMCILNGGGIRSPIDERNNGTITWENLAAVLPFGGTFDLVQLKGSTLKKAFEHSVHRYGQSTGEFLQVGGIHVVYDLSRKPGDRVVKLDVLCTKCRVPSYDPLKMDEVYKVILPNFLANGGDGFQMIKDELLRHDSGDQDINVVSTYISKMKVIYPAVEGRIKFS
The experiment in a line: Enzyme assay, CD73 (Malachite green kit). The class given is biochemical. The conditions noted are these: AMP added, incubation 30 minutes. As for the experimental part: (§1) Referring to a method described in a reference document [Front Pharmacol. 2018 Mar. 1; 9:153], an enzyme assay was performed. Each of human CD73 and CD39 recombinant proteins was produced and then purified and isolated, and used in an enzyme assay. A buffer was basically 25 mM Tris, 5 mM MgCl2, pH 7.5 as an assay buffer, and for assay, human CD73 and CD39 recombinant protein were diluted at an appropriate concentration, respectively, in the assay buffer, adenosine monophosphate (AMP) (Sigma, Catalog #A1752) at an appropriate concentration was added, and then incubation was performed for 30 minutes. At the time, the azolopyrimidine heterocyclic compounds of the present invention were treated for each concentration and incubated together, thereby measuring a degree of inhibiting activity of CD73 or CD39.

The target in experiment [2] is T2, human CD39 recombinant protein (Homo sapiens, UniProt P49961).
T2 construct: made in house
T2 sequence (P49961 1-510): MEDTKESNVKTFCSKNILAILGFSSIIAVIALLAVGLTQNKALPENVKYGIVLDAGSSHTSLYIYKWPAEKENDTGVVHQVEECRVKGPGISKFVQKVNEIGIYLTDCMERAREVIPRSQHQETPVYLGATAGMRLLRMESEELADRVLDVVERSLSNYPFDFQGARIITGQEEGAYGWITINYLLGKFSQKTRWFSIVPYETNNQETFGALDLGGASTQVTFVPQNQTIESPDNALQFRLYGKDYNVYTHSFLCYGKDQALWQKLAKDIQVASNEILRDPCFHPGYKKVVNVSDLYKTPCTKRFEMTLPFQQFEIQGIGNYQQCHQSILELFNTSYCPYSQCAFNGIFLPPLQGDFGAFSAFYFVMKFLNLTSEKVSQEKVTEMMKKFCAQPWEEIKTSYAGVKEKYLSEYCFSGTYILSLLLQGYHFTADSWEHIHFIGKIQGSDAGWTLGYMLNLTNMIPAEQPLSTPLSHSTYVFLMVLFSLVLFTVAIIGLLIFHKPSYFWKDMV
The experiment in a line: Enzyme assay, CD39 (Malachite green kit). The class given is biochemical. To be noted: AMP added, incubation 30 minutes. The procedure:
as §1

Data on 18 molecules can be found in US20220160747A1, “PHARMACEUTICAL COMPOSITION COMPRISING NOVEL AZOLOPYRIMIDINE HETEROCYCLIC COMPOUND AS ACTIVE INGREDIENT” (KOREA RESEARCH INSTITUTE OF CHEMICAL TECHNOLOGY, priority 2019, published 2022).

Structures are written as SMILES. Bounds are passed on as bounds.

In general, IC50 refers to the concentration needed to halve the response being measured. Regarding `CN(Cc1cccc(F)c1)c1ncnc2c1ncn2[C@@H]1O[C@H](CO[Si](c2ccccc2)(c2ccccc2)C(C)(C)C)[C@H]2OC(C)(C)O[C@H]21` [Compound 1, 9-((3aR,4R,6R,6aR)-6-(((tert-butyldiphenylsilyl)oxy)methyl)-2,2-dimethyltetrahydrofuro[3,4-d][1,3]dioxol-4-yl)-N-(3-fluorobenzyl)-N-methyl-9H-purin-6-amine], the half-inhibitory concentration (IC50) in experiment [1] was not below 30 µM.

For the molecule `CN(Cc1cccc(F)c1)c1ncnc2c1ncn2[C@@H]1O[C@H](COC(=O)Nc2ccccc2)[C@H]2OC(C)(C)O[C@H]21` [Compound 3, ((3aR,4R,6R,6aR)-6-(6-((3-fluorobenzyl)(methyl)amino)-9H-purin-9-yl)-2,2-dimethyltetrahydrofuro[3,4-d][1,3]dioxol-4-yl)methyl phenylcarbamate], in experiment [1], the half-maximal inhibitory concentration (IC50) is 15.1 to 30 µM.

As to `CN(Cc1cccc(F)c1)c1ncnc2c1ncn2[C@@H]1O[C@H](COC(=S)Nc2ccccc2)[C@H]2OC(C)(C)O[C@H]21` [Compound 4, O-(((3aR,4R,6R,6aR)-6-(6-((3-fluorobenzyl)(methyl)amino)-9H-purin-9-yl)-2,2-dimethyltetrahydrofuro[3,4-d][1,3]dioxol-4-yl)methyl) phenylcarbamothioate], in experiment [1], the 50% inhibitory concentration (IC50) was 15.1 to 30 µM.

As to `CN(Cc1cccc(F)c1)c1ncnc2c1ncn2[C@@H]1O[C@H](COC(=O)Nc2ccccc2)[C@@H](O)[C@H]1O` [Compound 6, ((2R,3S,4R,5R)-5-(6-((3-fluorobenzyl)(methyl)amino)-9H-purin-9-yl)-3,4-dihydroxytetrahydrofuran-2-yl)methyl phenylcarbamate], in experiment [1], the half-maximal inhibitory concentration (IC50) lay in the range of 5.1 to 15 µM.

Consider `CN(Cc1cccc(F)c1)c1ncnc2c1ncn2[C@@H]1O[C@H](COC(=S)Nc2ccccc2)[C@@H](O)[C@H]1O` [Compound 7, O-(((2R,3S,4R,5R)-5-(6-((3-fluorobenzyl)(methyl)amino)-9H-purin-9-yl)-3,4-dihydroxytetrahydrofuran-2-yl)methyl) phenylcarbamothioate], for which the half-maximal inhibitory concentration (IC50) was 1.1 to 5 µM in experiment [1] and not below 30 µM in experiment [2].

Take `CN(Cc1cccc(F)c1)c1ncnc2c1ncn2[C@@H]1O[C@H](CO[Si](c2ccccc2)(c2ccccc2)C(C)(C)C)[C@@H](O)[C@H]1O` [Compound 8, (2R,3S,4R,5R)-2-(((tert-butyldiphenylsilyl)oxy)methyl)-5-(6-((3-fluorobenzyl)(methyl)amino)-9H-purin-9-yl)tetrahydrofuran-3,4-diol]: the 50% inhibitory concentration (IC50) in experiment [1] is less than 1 µM; in experiment [2], 1.1 to 5 µM.

As for `CN(Cc1cccc(F)c1)c1ncnc2c1ncn2[C@@H]1O[C@H](COC(=O)c2ccccc2)[C@@H](O)[C@H]1O` [Compound 9, ((2R,3S,4R,5R)-5-(6-((3-fluorobenzyl)(methyl)amino)-9H-purin-9-yl)-3,4-dihydroxytetrahydrofuran-2-yl)methyl benzoate], the half-maximal inhibitory concentration (IC50) in experiment [1] was 5.1 to 15 µM.

On to `CN(Cc1cccc(F)c1)c1ncnc2c1ncn2[C@@H]1O[C@H](COCc2ccc(-c3ccccc3)cc2)[C@@H](O)[C@H]1O` [Compound 13, (2R,3S,4R,5R)-2-(([1,1′-biphenyl]-4-ylmethoxy)methyl)-5-(6-((3-fluorobenzyl)(methyl)amino)-9H-purin-9-yl)tetrahydrofuran-3,4-diol], for which the results for the half-maximal inhibitory concentration (IC50) in experiment [1] and in experiment [2] were less than 1 µM and 1.1 to 5 µM, respectively.

With `CN(Cc1cccc(F)c1)c1ncnc2c1ncn2[C@@H]1O[C@H](COCc2cc(C(F)(F)F)cc(C(F)(F)F)c2)[C@@H](O)[C@H]1O` [Compound 14, (2R,3S,4R,5R)-2-(((3,5-bis(trifluoromethyl)benzyl)oxy)methyl)-5-(6-((3-fluorobenzyl)(methyl)amino)-9H-purin-9-yl)tetrahydrofuran-3,4-diol], the values for the IC50 in experiment [1] and in experiment [2] were less than 1 µM and 5.1 to 15 µM, respectively.

`CN(Cc1cccc(F)c1)c1ncnc2c1ncn2[C@@H]1O[C@H](COCc2ccc(S(F)(F)(F)(F)F)cc2)[C@@H](O)[C@H]1O` [Compound 15, (2R,3R,4S,5R)-2-(6-((3-fluorobenzyl)(methyl)amino)-9H-purin-9-yl)-5-(((4-(pentafluorothio)benzyl)oxy)methyl)tetrahydrofuran-3,4-diol]: the half-maximal inhibitory concentration (IC50) in experiment [1] and in experiment [2] was 1.1 to 5 µM each time.

Regarding `CN(Cc1cccc(F)c1)c1ncnc2c1ncn2[C@@H]1O[C@H](COCc2ccc3ccccc3c2)[C@H]2OC(C)(C)O[C@H]21` [Compound 16, 9-((3aR,4R,6R,6aR)-2,2-dimethyl-6-((naphthalen-2-ylmethoxy)methyl)tetrahydrofuro[3,4-d][1,3]dioxol-4-yl)-N-(3-fluorobenzyl)-N-methyl-9H-purin-6-amine], the values for the IC50 in experiment [1] and in experiment [2] were 1.1 to 5 µM and 5.1 to 15 µM, respectively.

Turning to `CN(Cc1cccc(F)c1)c1ncnc2c1ncn2[C@@H]1O[C@H](COCc2ccc3ccccc3c2Br)[C@H]2OC(C)(C)O[C@H]21` [Compound 17, 9-((3aR,4R,6R,6aR)-6-(((1-bromonaphthalen-2-yl)methoxy)methyl)-2,2-dimethyltetrahydrofuro[3,4-d][1,3]dioxol-4-yl)-N-(3-fluorobenzyl)-N-methyl-9H-purin-6-amine], the IC50 in experiment [1] and in experiment [2] was 1.1 to 5 µM throughout.

In the case of `CN(Cc1cccc(F)c1)c1ncnc2c1ncn2[C@@H]1O[C@H](COCc2ccc3ccccc3c2)[C@@H](O)[C@H]1O` [Compound 18, (2R,3R,4S,5R)-2-(6-((3-fluorobenzyl)(methyl)amino)-9H-purin-9-yl)-5-((naphthalen-2-ylmethoxy)methyl)tetrahydrofuran-3,4-diol], the IC50 in experiment [1] lay within 1.1 to 5 µM; in experiment [2], 15.1 to 30 µM.

Take `CN(Cc1cccc(F)c1)c1ncnc2c1ncn2[C@@H]1O[C@H](COCc2ccc3ccccc3c2Br)[C@@H](O)[C@H]1O` [Compound 19, (2R,3S,4R,5R)-2-(((1-bromonaphthalen-2-yl)methoxy)methyl)-5-(6-((3-fluorobenzyl)(methyl)amino)-9H-purin-9-yl)tetrahydrofuran-3,4-diol]: the IC50 in experiment [1] and in experiment [2] was 1.1 to 5 µM throughout.

Consider `CN(Cc1cccc(F)c1)c1ncnc2c1ncn2[C@@H]1O[C@H](CO[Si](C)(C)C(C)(C)C)[C@@H](O)[C@H]1O` [Compound 20, (2R,3S,4R,5R)-2-(((tert-butyldimethylsilyl)oxy)methyl)-5-(6-((3-fluorobenzyl)(methyl)amino)-9H-purin-9-yl)tetrahydrofuran-3,4-diol], for which the half-inhibitory concentration (IC50) in experiment [1] and in experiment [2] was 1.1 to 5 µM throughout.

For the molecule `CN(Cc1cccc(F)c1)c1ncnc2c1ncn2[C@@H]1O[C@H](CO[Si](c2ccccc2)(c2ccccc2)c2ccccc2)[C@@H](O)[C@H]1O` [Compound 21, (2R,3R,4S,5R)-2-(6-((3-fluorobenzyl)(methyl)amino)-9H-purin-9-yl)-5-(((triphenylsilyl)oxy)methyl)tetrahydrofuran-3,4-diol], the IC50 was less than 1 µM in experiment [1] and 1.1 to 5 µM in experiment [2].

As to `O[C@@H]1[C@H](O)[C@@H](COC(c2ccccc2)(c2ccccc2)c2ccccc2)O[C@H]1n1cnc2c(Cl)ncnc21` [Compound 22, (2R,3R,4S,5R)-2-(6-chloro-9H-purin-9-yl)-5-((trityloxy)methyl)tetrahydrofuran-3,4-diol], the IC50 in experiment [1] was less than 1 µM; in experiment [2] it was 5.1 to 15 µM.

Regarding `COc1ccc(C(OC[C@H]2O[C@@H](n3cnc4c(Cl)ncnc43)[C@H](O)[C@@H]2O)(c2ccccc2)c2ccc(OC)cc2)cc1` [Compound 23, (2R,3S,4R,5R)-2-((bis(4-methoxyphenyl) (phenyl)methoxy)methyl)-5-(6-chloro-9H-purin-9-yl)tetrahydrofuran-3,4-diol], the IC50 is 1.1 to 5 µM in experiment [1] and not below 30 µM in experiment [2].
